Target: T1, human CPT1A (Homo sapiens, UniProt P50416)
T1 construct: made in house; host or cells: Saccharomyces cerevisiae (pESC-trp) or cultured mammalian cells (pCDNA3.1); mitochondrial extract
T1 sequence (P50416 1-773): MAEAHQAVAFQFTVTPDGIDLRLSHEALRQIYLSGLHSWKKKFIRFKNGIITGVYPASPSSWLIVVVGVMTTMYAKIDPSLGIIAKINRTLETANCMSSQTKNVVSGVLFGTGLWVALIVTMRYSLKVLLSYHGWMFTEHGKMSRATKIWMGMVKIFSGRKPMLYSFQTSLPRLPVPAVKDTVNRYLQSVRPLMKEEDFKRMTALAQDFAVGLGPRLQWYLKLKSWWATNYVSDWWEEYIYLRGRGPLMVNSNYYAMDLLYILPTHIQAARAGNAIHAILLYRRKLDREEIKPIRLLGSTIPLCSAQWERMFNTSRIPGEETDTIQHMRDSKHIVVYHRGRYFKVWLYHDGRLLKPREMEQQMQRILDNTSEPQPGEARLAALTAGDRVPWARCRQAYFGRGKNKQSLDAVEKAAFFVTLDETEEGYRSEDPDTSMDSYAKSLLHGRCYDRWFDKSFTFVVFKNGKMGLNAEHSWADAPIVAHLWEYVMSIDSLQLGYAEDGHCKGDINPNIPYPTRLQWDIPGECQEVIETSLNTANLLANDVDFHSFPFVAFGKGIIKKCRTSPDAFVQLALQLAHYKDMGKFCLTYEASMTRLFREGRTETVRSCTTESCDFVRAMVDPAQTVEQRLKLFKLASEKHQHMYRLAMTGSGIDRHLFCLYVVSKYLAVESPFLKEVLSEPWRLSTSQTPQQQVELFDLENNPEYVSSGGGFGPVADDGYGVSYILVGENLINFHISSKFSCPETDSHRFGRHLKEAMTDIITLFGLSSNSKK
Assay: Human CPT1A LC/MS assay
Assay type: biochemical
Details: human CPT1A LC/MS assay, dose response format
Description: Nucleotide sequences encoding human CPT1 enzymes were individually cloned into the yeast expression vector pESC-trp at the Cla1 (5′ terminus) and Pac1 (3′ terminus) restriction sites by PCR amplification of the open reading frame using oligonucleotide primers designed to encode the wild-type CPT1 protein sequence. Standard molecular biology techniques were used to transform and express the CPT1 proteins in the yeast Saccharomyces cerevisiae. The yeast cells were lysed by enzymatic degradation of the cell wall by Zymolase, and the mitochondria were isolated by standard biochemical techniques. The integrity of the isolated mitochondria was monitored by determining the activity of succinate dehydrogenase in the mitochondrial preparations. The mitochondrial extracts were stored at −80° C. in buffer containing 10 mM HEPES pH 7.4 and 250 mM sucrose.
Human CPT1 (A, B, C) genes were additionally cloned into the pCDNA3.1 vector individually for expression in cultured mammalian cells. Cells expressing the exogenous CPT1A were identified and grown under standard conditions. Mammalian cells were harvested, and mitochondrial extracts prepared using standard biochemical methods. The mitochondrial extracts were stored at −80° C. in buffer containing 10 mM HEPES pH 7.4 and 250 mM sucrose.
Assays were performed in 96-well plate format. Each 100 μL reaction contained 40 mM KCl, 50 mM TrisHCl pH 7.5, and 250 mM mannitol (Assay Buffer), and 1.6 μg protein of an extract, 20 μM palmitoyl-CoA, 50 μM L-carnitine, and 10 ug/mL BSA. Reactions were incubated at room temperature and stopped after 10 minutes by extraction with 200 μL of water saturated n-butanol containing myristoyl carnitine (500 nM) as an internal standard. The samples were thoroughly mixed, and the phases separated by centrifugation. Samples were prepared for analysis with a 10 fold dilution of the n-butanol phase containing the reaction product palmitoyl carnitine into a 50:50 (acetonitrile:water) solvent for analysis. […] of prepared sample was separated on a Phenomenex Jupiter 5μ C4 reverse-phase column using an Agilent 1100 HPLC with a gradient from 50% acetonitrile (0.5% acetic acid) to 100% acetonitrile and quantified by detection with a Bruker Esquire 3000plus mass spectrometer. The abundance of the palmitoyl carnitine product was determined relative to the internal standard and the actual quantity of palmitoyl carnitine can be determined from a standard curve prepared using the n-butanol solution containing the internal standard.
Compounds were evaluated in two formats, a screening format, and a dose response format. The screening format was performed by adding 25 μL compound in 20% DMSO and Assay Buffer to 25 μL of extract containing […] and Assay Buffer, followed by a 10 minute incubation at room temperature. 50 μL of 40 μM palmitoyl-CoA in Assay Buffer was added to the reaction mixture, mixed and incubated for 10 minutes at room temperature. A negative control for activity was also performed where the carnitine was omitted from the reaction. A positive control for activity was also performed by omitting compound from the solution containing 20% DMSO and Assay Buffer. The reaction mixture was extracted and analyzed as described above. The inhibition by compound was determined by comparing the control relative activity to the relative activity observed in wells containing the compound. Relative activity was determined by subtracting the relative intensity (area palmitoyl carnitine/area myristoyl carnitine) observed in the negative control from the relative intensity observed in the experimental well, and dividing by the relative activity observed in the positive control.
[formula] Compound characterization by dose response format was performed using the above described assay conditions and a 16 point compound titration in 2 fold compound dilution steps. The DMSO concentration was kept constant at 20% (v/v) for all compound concentrations.

| IC50 | Structure (SMILES) |
| --- | --- |
| 100 to 1000 µM | CCCOc1ccc(C(=O)N[C@H](CC(=O)[O-])C[N+](C)(C)C)cc1 [Example S1, (R)-3-(4-propoxybenzamido)-4-(trimethylammonio)butanoate] |
| 100 to 1000 µM | C[N+](C)(C)C[C@@H](CC(=O)O)NC(=O)c1ccc(NS(=O)(=O)c2cccs2)cc1 [Example S2, (R)-3-(4-(thiophene-2-sulfonamido)benzamido)-4-(trimethylammonio)-butanoate] |
| 10 to 100 µM | C[N+](C)(C)C[C@@H](CC(=O)[O-])NC(=O)c1ccc(C#Cc2ccccc2)o1 [Example S3, (R)-3-(5-(phenylethynyl)furan-2-carboxamido)-4-(trimethylammonio)-butanoate] |
| 10 to 100 µM | CCCCC#Cc1ccc(C(=O)N[C@H](CC(=O)[O-])C[N+](C)(C)C)o1 [Example S4, (R)-3-(5-(hex-1-ynyl)furan-2-carboxamido)-4-(trimethylammonio)butanoate] |
| 100 to 1000 µM | Cc1ccoc1C(=O)Nc1ccc(C(=O)N[C@H](CC(=O)[O-])C[N+](C)(C)C)cc1 [Example S5, (R)-3-(4-(3-methylfuran-2-carboxamido)benzamido)-4-(trimethylammonio)-butanoate] |
| 100 to 1000 µM | C[N+](C)(C)C[C@@H](CC(=O)[O-])NC(=O)Nc1ccc(C(F)(F)F)cc1Cl [Example S6, (R)-3-(3-(2-chloro-4-(trifluoromethyl)phenyl)ureido)-4-(trimethylammonio)-butanoate] |
| 10 to 100 µM | C[N+](C)(C)C[C@@H](CC(=O)[O-])NC(=O)Nc1ccc(Oc2ccccc2)cc1 [Example S8, (R)-3-(3-(4-phenoxyphenyl)ureido)-4-(trimethylammonio)butanoate] |
| 1000 to 2500 µM | Cc1nc(-c2ccccc2)sc1NC(=O)N[C@H](CC(=O)[O-])C[N+](C)(C)C [Example S9, (R)-3-(3-(4-methyl-2-phenylthiazol-5-yl)ureido)-4-(trimethylammonio)-butanoate] |
| 100 to 1000 µM | C[N+](C)(C)C[C@@H](CC(=O)[O-])NC(=O)Nc1ccc(-c2cccs2)cc1 [Example S11, (R)-3-(3-(4-(thiophen-2-yl)phenyl)ureido)-4-(trimethylammonio)butanoate] |
| 100 to 1000 µM | C[N+](C)(C)C[C@@H](CC(=O)O)NC(=O)Nc1ccc(OCc2ccccc2)cc1 [Example S12, (R)-3-(3-(4-(Benzyloxy)phenyl)ureido)-4-(trimethylammonio)butanoate acetate] |
| 1000 to 2500 µM | CCCCc1ccc(NC(=O)N[C@H](CC(=O)[O-])C[N+](C)(C)C)c(C)c1 [Example S13, (R)-2-(3-(4-Butyl-2-methylphenyl)ureido)-3-carboxy-N,N,N-trimethylpropan-1-aminium] |
| 1000 to 2500 µM | C[N+](C)(C)C[C@@H](CC(=O)O)NC(=O)Nc1ccc(F)c(F)c1F [Example S14, (R)-3-Carboxy-N,N,N-trimethyl-2-(3-(2,3,4-trifluorophenyl)ureido)-propan-1-aminium acetate] |
| 10 to 100 µM | CCCCCc1ccc(NC(=O)N[C@H](CC(=O)[O-])C[N+](C)(C)C)cc1 [Example S15, (R)-3-Carboxy-N,N,N-trimethyl-2-(3-(4-pentylphenyl)ureido)propan-1-aminium] |
| 10 to 100 µM | C[N+](C)(C)C[C@@H](CC(=O)O)NC(=O)Nc1ccc(C(=O)c2ccccc2)cc1 [Example S16, (R)-2-(3-(4-Benzoylphenyl)ureido)-3-carboxy-N,N,N-trimethylpropan-1-aminium acetate] |
| 100 to 1000 µM | C[N+](C)(C)C[C@@H](CC(=O)O)NC(=O)Nc1ccc(-c2ccccc2)cc1 [Example S17, (R)-2-(3-Biphenyl-4-ylureido)-3-carboxy-N,N,N-trimethylpropan-1-aminium acetate] |
| 100 to 1000 µM | C[N+](C)(C)C[C@@H](CC(=O)O)NS(=O)(=O)c1ccc(Oc2ccccc2)nc1 [Example S19, (R)-3-carboxy-N,N,N-trimethyl-2-(6-phenoxypyridine-3-sulfonamido)propan-1-aminium 2,2,2-trifluoroacetate] |
| 1000 to 2500 µM | C[N+](C)(C)C[C@@H](CC(=O)O)NS(=O)(=O)c1ccc(-c2ccccn2)s1 [Example S21, (R)-3-(5-(pyridin-2-yl)thiophene-2-sulfonamido)-4-(trimethylammonio)-butanoate 2,2,2-trifluoroacetate] |
| 1000 to 2500 µM | C[N+](C)(C)C[C@@H](CC(=O)O)NS(=O)(=O)c1ccc(-c2ccno2)s1 [Example S22, (R)-3-carboxy-2-(5-(isoxazol-5-yl)thiophene-2-sulfonamido)-N,N,N-trimethylpropan-1-aminium 2,2,2-trifluoroacetate] |
| 1 to 10 µM | CCCCCc1ccc(S(=O)(=O)N[C@H](CC(=O)O)C[N+](C)(C)C)cc1 [Example S23, (R)-3-(4-pentylphenylsulfonamido)-4-(trimethylammonio)butanoate 2,2,2-trifluoroacetate] |
| ≤ 1 µM | CCCCCCCc1ccc(NS(=O)(=O)N[C@H](CC(=O)[O-])C[N+](C)(C)C)cc1 [Example S27, (R)-3-(N-(4-heptylphenyl)sulfamoylamino)-4-(trimethylammonio)-butanoate] |
| ≤ 1 µM | CCCCCCCCc1ccc(NS(=O)(=O)N[C@H](CC(=O)[O-])C[N+](C)(C)C)cc1 [Example S30, (R)-3-(N-(4-octylphenyl)sulfamoylamino)-4-(trimethylammonio)butanoate] |
| 10 to 100 µM | CCCCCCCCCCCCN(c1ccccc1)S(=O)(=O)N[C@H](CC(=O)[O-])C[N+](C)(C)C [Example S32, (R)-3-(N-dodecyl-N-phenylsulfamoylamino)-4-(trimethylammonio)-butanoate] |
| > 2500 µM | CN(C)C[C@@H](CC(=O)O)NC(=O)N(C)c1ccc(Oc2ccccc2)cc1 [Example S33, (R)-4-(dimethylammonio)-3-(3-methyl-3-(4-phenoxyphenyl)-ureido)butanoate] |
| 100 to 1000 µM | CN(C(=O)N[C@H](CC(=O)[O-])C[N+](C)(C)C)c1ccc(Oc2ccccc2)cc1 [Example S34, (R)-3-(3-methyl-3-(4-phenoxyphenyl)ureido)-4-(trimethyl-ammonio)butanoate] |
| 100 to 1000 µM | C[N+](C)(C)C[C@@H](CC(=O)[O-])NC(=O)Nc1cccc(Oc2ccccc2)c1 [Example S38, (R)-3-(3-(3-Phenoxyphenyl)ureido)-4-(trimethylammonio)butanoate] |
| ≤ 1 µM | C[N+](C)(C)C[C@@H](CC(=O)O)NC(=O)c1ccc(CCc2ccccc2)o1 [Example S42, (R)-3-(5-phenethylfuran-2-carboxamido)-4-(trimethylammonio)-butanoate] |
| ≤ 1 µM | C[N+](C)(C)C[C@@H](CC(=O)O)NC(=O)c1ccc(C#Cc2ccccc2)s1 [Example S43, (R)-3-(5-(phenylethynyl)thiophene-2-carboxamido)-4-(trimethylammonio)-butanoate] |
